According to US20110071158A1, “NEW COMPOUNDS” (BOEHRINGER INGELHEIM INTERNATIONAL GMBH, priority 2009, published 2011):

What was measured:
Assay type in all cases: biochemical
PTK2 enzyme [1] = target: T1, PTK2 enzyme (Homo sapiens, UniProt Q05397); experiment: PTK2 enzyme test, Assay 1 (DELFIA, poly-Glu-Tyr substrate, antibody PT60); conditions: Assay 1 (values without *); 1 h pre-incubation, 2% DMSO
T1 construct: purchased Invitrogen PV3832
In short: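 Active PTK2 (0.01 µg/well) preincubated 1 h at RT with compound (duplicates, 2% DMSO final), then reacted 1 h at RT with poly(Glu,Tyr) 4:1 plus biotinylated poly(Glu,Tyr) and an ATP mix containing 50 μM ATP. EDTA-stopped, streptavidin-captured product detected by Eu-PT60 anti-phosphotyrosine DELFIA; IC50 by variable-Hill sigmoid fit.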

[2] = target: T2, Xenopus laevis Aurora B/INCENP complex (Xenopus laevis, UniProt Q6DE08); experiment: Aurora-B kinase assay (radioactive enzyme inhibition)
T2 construct: equipped at the N-terminal position with a GST tag (amino acids 60-361); GST (N, cleaved yes); made in house; host or cells: E. coli BL21 (DE3)
T2 sequence (Q6DE08 60-361): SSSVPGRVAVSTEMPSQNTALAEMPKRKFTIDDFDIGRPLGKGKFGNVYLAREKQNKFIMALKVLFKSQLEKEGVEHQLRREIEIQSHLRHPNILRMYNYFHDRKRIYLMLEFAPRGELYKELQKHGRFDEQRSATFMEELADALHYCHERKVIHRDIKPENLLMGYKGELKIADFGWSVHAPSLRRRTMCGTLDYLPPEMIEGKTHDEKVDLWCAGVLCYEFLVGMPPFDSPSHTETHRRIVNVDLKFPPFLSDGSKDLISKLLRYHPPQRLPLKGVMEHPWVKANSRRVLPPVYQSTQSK
T2 sequence (O13024 790-847 partner): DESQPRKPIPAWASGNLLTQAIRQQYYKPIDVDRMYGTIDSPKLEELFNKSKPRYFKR
Text: A radioactive enzyme inhibition assay was developed using E. coli-expressed recombinant Xenopus laevis Aurora B wild-type protein equipped at the N-terminal position with a GST tag (amino acids 60-361) in a complex with Xenopus laevis INCENP (amino acids 790-847), which is obtained from bacteria and purified. In equivalent manner a Xenopus laevis Aurora B mutant (G96V) in a complex with Xenopus laevis INCENP^790-847 may also be used.
The coding sequence for Aurora-B^60-361 from Xenopus laevis is cloned into a modified version of pGEX-6T (Amersham Biotech) via BamHI and SalI cutting sites. The vector contains two cloning cassettes which are separated by a ribosomal binding site, allowing bi-cistronic expression. In this configuration Xenopus laevis Aurora B is expressed by the first cassette, and the Xenopus laevis INCENP^790-847 is expressed by the second cassette. The resulting vector is pAUB-IN^847.
First of all the E. coli strain BL21 (DE3) is co-transformed with pUBS520 helper plasmid and pAUB-IN^847, after which protein expression is induced using 0.3 mM IPTG at an OD600 of 0.45-0.7. The expression is then continued for approx. 12-16 h at 23-25° C. with agitation.
The bacteria are then removed by centrifuging and the pellet is lysed in lysis buffer (50 mM Tris/Cl pH 7.6, 300 mM NaCl, 1 mM DTT, 1 mM EDTA, 5% glycerol, Roche Complete Protease Inhibitor tablets) using ultrasound, using 20-30 mL lysis buffer per litre of E. coli culture. The lysed material is freed from debris by centrifugation (12000 rpm, 45-60 min, JA20 rotor). The supernatant is incubated with […] of equilibrated GST Sepharose Fast Flow (Amersham Biosciences) per litre of E. coli culture for 4-5 h at 4° C. Then the column material is washed with 30 volumes of lysis buffer and then equilibrated with 30 volumes of cleavage buffer (50 mM Tris/Cl pH 7.6, 150 mM NaCl, 1 mM DTT, 1 mM EDTA). To cleave the GST tag from Aurora B, 10 units of Prescission Protease (Amersham Biosciences) are used per milligram of substrate and the mixture is incubated for 16 h at 4° C. The supernatant which contains the cleavage product is loaded onto a 6 mL Resource Q column (Amersham Biosciences) equilibrated with ion exchange buffer (50 mM Tris/Cl pH 7.6, 150 mM NaCl, 1 mM DTT, 1 mM EDTA). The Aurora B/INCENP complex is caught as it flows through, then concentrated and loaded onto a Superdex 200 size exclusion chromatography (SEC) column equilibrated with SEC buffer (10 mM Tris/Cl pH 7.6, 150 mM NaCl, 1 mM DTT, 1 mM EDTA). Fractions which contain the AuroraB/INCENP complex are collected and concentrated using Vivaspin concentrators (molecular weight exclusion 3000-5000 Da) to a final concentration of 12 mg/mL. Aliquots (e.g. 240 ng/μL) for kinase assays are transferred from this stock solution into freezing buffer (50 mM Tris/Cl pH 8.0, 150 mM NaCl, 0.1 mM EDTA, 0.03% Brij-35, 10% glycerol, 1 mM DTT) and stored at −80° C.
Test substances are placed in a polypropylene dish (96 wells, Greiner #655 201), in order to cover a concentration frame of 10 μM-0.0001 μM. The final concentration of DMSO in the assay is 5%. 30 μL of protein mix (50 mM Tris/Cl pH 7.5, 25 mM MgCl2, 25 mM NaCl, 167 μM ATP, 10 ng Xenopus laevis Aurora B/INCENP complex in freezing buffer) are pipetted into the 10 μl of test substance provided in 25% DMSO and this is incubated for 15 min at RT. Then 10 μL of peptide mix (100 mM Tris/Cl pH 7.5, 50 mM MgCl2, 50 mM NaCl, 5 μM NaF, 5 μM DTT, 1 μCi gamma-P33-ATP [Amersham], 50 μM substrate peptide [biotin-EPLERRLSLVPDS or multimers thereof, or biotin-EPLERRLSLVPKM or multimers thereof, or biotin-[…]]) are added. The reaction is incubated for 75 min (ambient temperature) and stopped by the addition of 180 μL of 6.4% trichloroacetic acid and incubated for 20 min on ice. […]

PTK2 enzyme [3] = target: T1, PTK2 enzyme; experiment: PTK2 enzyme test, Assay 2 (DELFIA, poly-Glu-Tyr substrate, antibody PT66); conditions: Assay 2 (values marked *); 1 h pre-incubation, 0.5% DMSO
Text: This test uses active PTK2 enzyme (Invitrogen Code PV3832) and poly-Glu-Tyr (4:1, Sigma P-0275) as the kinase substrate. The kinase activity is detected by means of the phosphorylation of the substrate in a DELFIA™ assay. The phosphorylated substrate is detected with the europium-labelled phosphotyrosine antibody PT66 (Perkin Elmer, No.: AD0040).
In order to determine concentration-activity curves with PTK2-inhibitors the compounds are serially diluted first of all in 10% DMSO/H2O and then in kinase dilution buffer (20 mM TRIS/HCl pH 7.5, 0.1 mM EDTA, 0.1 mM EGTA, 0.286 mM sodium orthovanadate, 10% glycerol with the addition of freshly prepared BSA (fraction V, 1 mg/mL) and DTT (1 mM)) and 10 μL of each dilution are dispensed per well in a 96-well microtitre plate (clear U-shaped base plate, Greiner No. 650101) (the inhibitors are tested in duplicates) and mixed with 10 μL/well of PTK2 kinase (0.01 μg/well). PTK2 kinase is diluted accordingly beforehand with kinase dilution buffer. The diluted PTK2 inhibitor and the PTK2 kinase are pre-incubated for 1 h at RT and shaken at 500 revolutions per min. Then 10 μL/well poly-Glu-Tyr substrate (25 μg/well poly-Glu-Tyr, 0.05 μg/well biotinylated poly-Glu-Tyr dissolved in 250 mM TRIS/HCl pH 7.5, 9 mM DTT) are added. The reaction is started by the addition of 20 μL of ATP Mix (30 mM TRIS/HCl pH 7.5, 0.02% Brij, 0.2 mM sodium orthovanadate, 10 mM magnesium acetate, 0.1 mM EGTA, 1× phosphatase inhibitor cocktail 1 (Sigma, No.: P2850), 50 μM ATP (Sigma, No.: A3377; 15 mM stock solution))—the final concentration of DMSO is 0.5%. After 1 h kinase reaction (the plates are shaken at 500 rpm), the reaction is stopped by the addition of 12 μL/well of 100 mM EDTA, pH 8, and shaken for a further 5 min at RT (500 U/min). 55 μL of the reaction mixture are transferred into a streptavidin plate (Strepta Well High Bind (transparent, 96-well) made by Roche, No.: 11989685001) and incubated for 1 h at RT (shaking at 500 rpm). Then the microtitre plate is washed five times with 200 μL/well D-PBS (Invitrogen, No. 14190). 100 μL of a solution containing DELFIA Eu-N1 Anti-Phosphotyrosine PT66 antibody (Perkin Elmer, No.: AD0040, diluted 1:9000 in DELFIA test buffer (Perkin Elmer, No.: 1244-111)) is then added and it is incubated for 1 h at RT (shaking at 500 rpm). Then the plate is washed five times with 200 μL/well DELFIA washing buffer (Perkin Elmer, No.: 1244-114), 200 μL/well strengthening solution (Perkin Elmer, No.: 1244-105) is added and the whole is incubated for 10 min at RT (shaking at 300 rpm).
The time-delayed europium fluorescence is then measured in a microtitre plate reader (Victor, Perkin Elmer). The positive control consists of wells that contain solvent (0.5% DMSO in test buffer) and display uninhibited kinase activity. Wells that contain test buffer instead of enzyme act as a control for the background kinase activity.
The IC50 values are determined from concentration-activity analyses by iterative calculation using a sigmoid curve analysis algorithm (FIFTY, based on Graph PAD Prism Version 3.03) with a variable Hill coefficient.

T1 sequence (Q05397 whole entry): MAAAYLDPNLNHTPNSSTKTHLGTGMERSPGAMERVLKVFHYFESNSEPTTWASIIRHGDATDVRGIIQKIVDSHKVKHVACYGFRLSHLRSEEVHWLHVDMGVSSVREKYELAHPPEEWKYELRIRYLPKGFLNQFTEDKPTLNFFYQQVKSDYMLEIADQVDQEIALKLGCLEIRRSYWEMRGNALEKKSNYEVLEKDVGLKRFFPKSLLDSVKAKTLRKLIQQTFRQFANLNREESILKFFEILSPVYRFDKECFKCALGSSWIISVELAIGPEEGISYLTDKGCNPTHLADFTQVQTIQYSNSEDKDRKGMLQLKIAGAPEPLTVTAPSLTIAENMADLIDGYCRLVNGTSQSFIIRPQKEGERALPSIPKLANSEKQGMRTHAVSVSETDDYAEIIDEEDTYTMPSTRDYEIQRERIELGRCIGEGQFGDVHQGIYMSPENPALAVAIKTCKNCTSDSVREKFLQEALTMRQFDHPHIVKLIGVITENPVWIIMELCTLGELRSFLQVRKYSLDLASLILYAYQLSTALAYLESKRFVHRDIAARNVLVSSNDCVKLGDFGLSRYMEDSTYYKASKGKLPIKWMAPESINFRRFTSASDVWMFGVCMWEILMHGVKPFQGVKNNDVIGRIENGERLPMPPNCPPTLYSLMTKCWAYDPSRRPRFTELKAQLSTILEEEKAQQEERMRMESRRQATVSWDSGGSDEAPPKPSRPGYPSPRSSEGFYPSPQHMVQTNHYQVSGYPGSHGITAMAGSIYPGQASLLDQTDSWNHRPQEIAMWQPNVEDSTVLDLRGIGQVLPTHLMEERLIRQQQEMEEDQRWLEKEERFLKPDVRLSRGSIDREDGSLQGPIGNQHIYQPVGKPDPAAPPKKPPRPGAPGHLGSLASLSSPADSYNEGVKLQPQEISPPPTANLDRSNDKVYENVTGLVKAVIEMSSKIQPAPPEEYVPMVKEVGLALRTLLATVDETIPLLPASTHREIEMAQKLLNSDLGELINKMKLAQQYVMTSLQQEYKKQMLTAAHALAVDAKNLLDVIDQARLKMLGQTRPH

SMILES | IC50 (PTK2 enzyme [1]) | IC50 [2] | IC50 (PTK2 enzyme [3])
COc1cc(C(=O)NC2CCN(C)CC2)c(Cl)cc1Nc1ncc(C(F)(F)F)c(N[C@@H]2CCCC[C@H]2N(C)S(C)(=O)=O)n1 [Example I-128] | 0.79 nM | > 5000 nM | –
COCCNC(=O)c1cc(OC)c(Nc2ncc(C(F)(F)F)c(N[C@@H]3CCCC[C@H]3N(C)S(C)(=O)=O)n2)cc1C [Example I-133] | 0.91 nM | 2190 nM | –
COc1cc(N2CCNCC2)c(Cl)cc1Nc1ncc(C(F)(F)F)c(N[C@@H]2CCC[C@H]2N(C)S(C)(=O)=O)n1 [Example I-134] | – | 778 nM | 0.5 nM
CNC(=O)c1cc(OC)c(Nc2ncc(C(F)(F)F)c(N[C@@H]3CCCC[C@H]3N(C)S(C)(=O)=O)n2)cc1Cl [Example I-135] | 1 nM | 1030 nM | –
COc1cc(N2CCN(C(C)(C)C)CC2)c(C)cc1Nc1ncc(C(F)(F)F)c(N[C@@H]2CCC[C@H]2N(C)S(C)(=O)=O)n1 [Example I-140] | – | > 5000 nM | 0.86 nM
COc1cc(C(=O)NC2CCN(C)CC2)c(F)cc1Nc1ncc(Br)c(N[C@@H]2CCC[C@H]2N(C)S(C)(=O)=O)n1 [Example I-142] | – | 311 nM | 0.5 nM
COc1cc(NC(=O)[C@H]2CCCN2C)ccc1Nc1ncc(C(F)(F)F)c(N[C@@H]2CCCC[C@H]2N(C)S(C)(=O)=O)n1 [Example I-146] | – | 413 nM | 0.58 nM
COc1cc(CN(C)C)ccc1Nc1ncc(C(F)(F)F)c(N[C@@H]2CCCC[C@H]2N(C)S(C)(=O)=O)n1 [Example I-147] | 0.9 nM | 332 nM | –
COc1cc(CN2CCN(C)CC2)ccc1Nc1ncc(C(F)(F)F)c(N[C@@H]2CCCC[C@H]2N(C)S(C)(=O)=O)n1 [Example I-148] | 0.95 nM | 707 nM | –
CNC(=O)c1cc(OC)c(Nc2ncc(C(F)(F)F)c(N[C@@H]3CCCC[C@H]3NS(C)(=O)=O)n2)cc1C [Example I-152] | – | 1590 nM | 0.41 nM
CCc1cc(Nc2ncc(C(F)(F)F)c(N[C@@H]3CCC[C@H]3N(C)S(C)(=O)=O)n2)c(OC)cc1N1CCNCC1 [Example I-153] | – | > 10000 nM | 0.69 nM
COc1cc(NC(C)=O)ccc1Nc1ncc(C(F)(F)F)c(N[C@@H]2CCCC[C@H]2N(C)S(C)(=O)=O)n1 [Example I-165] | 4 nM | 167 nM | –

Next, values leading:

IC50 (PTK2 enzyme [1]) | IC50 [2] | IC50 (PTK2 enzyme [3]) | SMILES
0.9 nM | 265 nM | – | COc1cc(C(=O)NC2CCN(C)CC2)ccc1Nc1ncc(C(F)(F)F)c(N[C@@H]2CCC[C@H]2NS(C)(=O)=O)n1 [Example I-126, 4-[4-((1R,2R)-2-methanesulphonylamino-cyclopentylamino)-5-trifluoromethyl-pyrimidin-2-ylamino]-3-methoxy-N-(1-methyl-piperidin-4-yl)-benzamide]
– | 417 nM | 0.53 nM | COc1cc(C(=O)NC2CCN(C)CC2)c(F)cc1Nc1ncc(Cl)c(N[C@@H]2CCC[C@H]2N(C)S(C)(=O)=O)n1 [Example I-127, 4-{5-chloro-4-[(1R,2R)-2-(methanesulphonyl-methyl-amino)-cyclopentylamino]-pyrimidin-2-ylamino}-2-fluoro-5-methoxy-N-(1-methyl-piperidin-4-yl)-benzamide]
– | 1010 nM | 0.29 nM | COc1cc(C(=O)NC2CCN(C)CC2)c(Cl)cc1Nc1ncc(C(F)(F)F)c(N[C@@H]2CCC[C@H]2N(C)S(C)(=O)=O)n1 [Example I-131]
– | 1070 nM | 0.44 nM | CNC(=O)c1cc(OC)c(Nc2ncc(C(F)(F)F)c(N[C@@H]3CCCC[C@H]3NS(C)(=O)=O)n2)cc1Cl [Example I-137]
– | 422 nM | 0.41 nM | C#CCNC(=O)c1cc(OC)c(Nc2ncc(C(F)(F)F)c(N[C@@H]3CCC[C@H]3NS(C)(=O)=O)n2)cc1C [Example I-138]
– | > 9000 nM | 0.76 nM | COc1ccc(C(=O)NCCN(C)C)cc1Nc1ncc(C(F)(F)F)c(N[C@@H]2CCCC[C@H]2N(C)S(C)(=O)=O)n1 [Example I-144]
– | 245 nM | 0.93 nM | COc1cc(NC(=O)C2CCN(C)CC2)ccc1Nc1ncc(C(F)(F)F)c(N[C@@H]2CCCC[C@H]2N(C)S(C)(=O)=O)n1 [Example I-155]
1 nM | 3360 nM | – | COc1cc(C(=O)NC2CCN(C)CC2)c(C)cc1Nc1ncc(Cl)c(N[C@@H]2CCCC[C@H]2N(C)S(C)(=O)=O)n1 [Example I-164]
